Data from article PMC7182039 (Journal of medicinal chemistry, 2020).
“And” between values parts separate entries of the source, which are not always exact repeats. Identical values can stand only once. Like-named read-outs stand apart in the source and are kept apart here. Marks after values point to notes of the source that are not given here.

Experiments:
[1] = system: schistosomes; conditions: cited from earlier work
[2] = system: juvenile stage of S. mansoni; conditions: mice, single 200 mg/kg oral dose; cited from earlier work
[3] = system: S. mansoni; conditions: adult infection, mice, single 400 mg/kg oral dose, cited from earlier work
[4] = Kinetic solubility by nephelometry; assay type: physicochemical; conditions: for sol6.5 / sol2.0: kinetic solubility, 1% DMSO, 30 min; for sol6.5: pH 6.5 phosphate buffer; for sol2.0: 0.01 M HCl (approx. pH 2.0)
[5] = In vitro metabolic stability in human liver microsomes; assay type: in vitro ADME; conditions: for h CLint: 37 °C, 0.4 mg/mL protein, NADPH
[6] = system: osteosarcoma (U-2 OS); experiment: Cytotoxicity screen; assay type: cell-based, human; conditions: 24 h, Alamar blue, data not shown
[7] = system: foreskin fibroblast (HFF); experiment: Cytotoxicity screen; assay type: cell-based, human; conditions: 24 h, Alamar blue, data not shown
[8] = system: kidney (HEK 293T); experiment: Cytotoxicity screen; assay type: cell-based, human; conditions: 24 h, Alamar blue, data not shown
[9] = system: hepatocyte (HC-04); experiment: Cytotoxicity screen; assay type: cell-based, human; conditions: HC-04, 24 h, Alamar blue; data not shown
[10] = In vitro metabolic stability in mouse liver microsomes; assay type: in vitro ADME; conditions: 37 °C, 0.4 mg/mL protein, NADPH

SMILES | antischistosomal activity [1] | S. mansoni WBR (%) 1 × 200 mg/kg po [2] | S. mansoni WBR (%) 1 × 400 mg/kg po ([3]; 400 mg/kg) | sol6.5 [4] [µg/mL] | S. mansoni WBR (%) 1 × 400 mg/kg po [3] | h CLint [5] | cytotoxicity: concentration without inhibition of the cell line [6] [µM] | cytotoxicity: concentration without inhibition of the cell line [7] [µM] | cytotoxicity: concentration without inhibition of the cell line [8] [µM] | cytotoxicity: concentration without inhibition of the cell line [9] [µM] | m CLint [10] | conversion to 2 in human liver microsomes [5] | sol2.0 [4] [µg/mL] | solubility ([4]; DMSO) [µg/mL]
c1cc([C@H]2CC[C@]3(CC2)OO[C@]2(O3)C3CC4CC(C3)CC2C4)ccc1OCCN1CCOCC1 [Compound 1] | no antischistosomal activity | – | – | – | – | – | – | – | – | – | – | – | – | –
O=C(O)COc1ccc([C@H]2CC[C@]3(CC2)OOC2(O3)C3CC4CC(C3)CC2C4)cc1 (some centres unmarked) [Compound 2] | – | 100^a % | 80^i,j % | 6.3 to 12.5 | – | – | – | – | – | – | – | – | – | –
O=C(O)c1ccc([C@H]2CC[C@]3(CC2)OOC2(O3)C3CC4CC(C3)CC2C4)cc1 (some centres unmarked) [Compound 3] | – | 100% and 84^a % | – | – | 74^i,j % | – | – | – | – | – | – | – | – | –
O=C(O)COc1ccc([C@H]2CC[C@]3(CC2)OOC2(O3)C3CC4CC(C3)CC2C4)cc1Cl (stereo partly drawn) [Compound 7, cis-Adamantane-2-spiro-3 ′−8 ′-[3-chloro-4-(carboxymethoxy)-phenyl]-1′,2′,4′-trioxaspiro[4.5]decan] | – | – | – | 3.1 to 6.3 | – | < 7 μL/(min mg) protein | > 50 | > 50 | > 50 | > 50 | 8 μL/(min mg) protein | – | – | –
O=C(O)CNC(=O)COc1ccc([C@H]2CC[C@]3(CC2)OOC2(O3)C3CC4CC(C3)CC2C4)cc1 (stereo partly drawn) [Compound 14, cis-Adamantane-2-spiro-3′−8′-[4-[2-[(carboxymethyl)amino]-2-oxoethoxy]phenyl]-1′,2′,4′-trioxaspiro[4.5]decane] | – | – | – | – | – | <7/CND^a,b μL/(min mg) protein | > 50 | > 50 | > 50 | > 50 | – | converted to 2 in human | 12.5 to 25 | –
O=C(O)CN1CCC(Oc2ccc([C@H]3CC[C@]4(CC3)OOC3(O4)C4CC5CC(C4)CC3C5)cc2)CC1 (some centres unmarked) [Compound 16] | – | – | – | – | – | <7/<7 μL/(min mg) protein | > 50 | > 50 | > 50 | > 50 | <7/<7 μL/(min mg) protein | – | – | < 1000
CS(=O)(=O)O.O=C(O)CNCc1ccc([C@H]2CC[C@]3(CC2)OOC2(O3)C3CC4CC(C3)CC2C4)cc1 (stereo partly drawn) [Compound 17, cis-Adamantane-2-spiro-3′−8′-[4-[[(carboxymethyi)amino]-methyl]phenyi]-1′,2′,4′-trioxaspiro[4.5]decane mesyiate] | – | – | – | < 6.3 | – | < 7 μL/(min mg) protein | > 50 | > 50 | > 50 | > 50 | 10 μL/(min mg) protein | – | < 12.5 | –
